{"source": "paper PMC6934184", "about": "“Selective DNA-PKcs inhibition extends the therapeutic index of localized radiotherapy and chemotherapy” (The Journal of Clinical Investigation, 2019)", "biological_target": "T1, PTK2B (FAK2) (Homo sapiens, UniProt Q14289)", "T1 construct": "purchased Thermo Fisher Scientific (Life Technologies) SelectScreen", "T1 sequence (Q14289 whole entry)": "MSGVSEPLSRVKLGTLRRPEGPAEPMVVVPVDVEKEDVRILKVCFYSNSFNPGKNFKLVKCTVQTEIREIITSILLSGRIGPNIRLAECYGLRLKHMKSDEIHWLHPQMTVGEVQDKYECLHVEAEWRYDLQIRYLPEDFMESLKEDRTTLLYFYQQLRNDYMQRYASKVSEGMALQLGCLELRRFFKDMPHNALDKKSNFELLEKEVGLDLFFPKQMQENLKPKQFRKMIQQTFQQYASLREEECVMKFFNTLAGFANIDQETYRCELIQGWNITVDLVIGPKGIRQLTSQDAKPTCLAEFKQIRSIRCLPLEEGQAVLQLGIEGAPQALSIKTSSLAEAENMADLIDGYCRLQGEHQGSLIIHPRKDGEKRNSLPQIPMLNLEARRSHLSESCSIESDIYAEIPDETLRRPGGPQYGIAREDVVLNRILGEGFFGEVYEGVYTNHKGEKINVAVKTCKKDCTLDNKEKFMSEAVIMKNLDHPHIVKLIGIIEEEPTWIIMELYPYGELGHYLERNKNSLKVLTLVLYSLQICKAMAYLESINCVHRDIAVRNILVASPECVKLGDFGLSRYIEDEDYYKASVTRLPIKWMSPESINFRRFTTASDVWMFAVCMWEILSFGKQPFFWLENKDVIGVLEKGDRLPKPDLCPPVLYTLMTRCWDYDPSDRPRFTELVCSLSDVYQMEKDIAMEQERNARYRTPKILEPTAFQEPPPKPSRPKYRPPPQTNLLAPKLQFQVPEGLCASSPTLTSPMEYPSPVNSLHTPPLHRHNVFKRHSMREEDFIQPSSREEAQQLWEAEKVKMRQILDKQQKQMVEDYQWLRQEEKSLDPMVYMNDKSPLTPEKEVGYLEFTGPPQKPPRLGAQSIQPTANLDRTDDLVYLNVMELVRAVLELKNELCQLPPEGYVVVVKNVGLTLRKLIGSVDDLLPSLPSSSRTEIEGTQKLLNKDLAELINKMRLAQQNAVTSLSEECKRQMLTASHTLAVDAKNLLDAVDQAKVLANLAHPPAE", "assay": "SelectScreen Z'LYTE", "assay_type": "biochemical", "summary_of_the_method": "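Percent values come from Thermo SelectScreen profiling of NU5455, combining activity and binding assays. CSF1R was run in Z'LYTE format at Km app ATP, and CAMK1 in Adapta format with ATP listed at 10.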"}
{"smiles": "CN(C(=O)CN1CCOCC1)c1ccc2sc3c(-c4cccc5c(=O)cc(N6CC7CCC(C6)O7)oc45)cccc3c2c1", "note": "[NU5455]", "values": [{"measurement": "inhibition at 1 µM", "value": 4.2, "unit": "%"}]}
